Our source for the Kd values is publication PMC12785651, “The Role of Active Site Hydrophobic Interactions in Facilitating Catalysis in Human Terminal Deoxynucleotidyl Transferase” (International Journal of Molecular Sciences, 2025).

For series [1], the target named is T1, TdT (human terminal deoxynucleotidyl transferase, hTdT) (Homo sapiens, UniProt P04053, F400A).
T1 construct: gene DNTT; expression per earlier publication
In words: microscale thermophoresis (Monolith NT.[…]). Type of series: binding. The conditions noted are these: 50 mM Tris-HCl pH 8.0, 5 mM MnCl2, 37 °C; no primer listed; Hill coefficient fixed at 2; labelled compound (fluorescein); read-out: Kd, μM / Flu-dUTP.

The target of series [2] is T2, TdT (human terminal deoxynucleotidyl transferase, hTdT) (Homo sapiens, UniProt P04053, L397A).
T2 construct: gene DNTT; expression per earlier publication
The series can be described thus: microscale thermophoresis (Monolith NT.[…]). Type of series: binding. Particulars: 50 mM Tris-HCl pH 8.0, 5 mM MnCl2, 37 °C; no primer listed; Hill coefficient fixed at 2; labelled compound (fluorescein); read-out: Kd, μM / Flu-dUTP.

The target in series [3] is T3, TdT (human terminal deoxynucleotidyl transferase, hTdT) (Homo sapiens, UniProt P04053, F404A).
T3 construct: gene DNTT; expression per earlier publication
The series can be described thus: microscale thermophoresis (Monolith NT.[…]). Type of series: binding. The conditions noted are these: 50 mM Tris-HCl pH 8.0, 5 mM MnCl2, 37 °C; no primer listed; Hill coefficient fixed at 2; labelled compound (fluorescein); read-out: Kd, μM / Flu-dUTP. Background: MST reads how a fluorescent partner responds to local heating, with and without ligand.

The target in series [4] is T4, TdT (human terminal deoxynucleotidyl transferase, hTdT) (Homo sapiens, UniProt P04053).
T4 construct: gene DNTT; expression per earlier publication
In words: microscale thermophoresis (Monolith NT.[…]). The conditions noted are these: 50 mM Tris-HCl pH 8.0, 5 mM MnCl2, 37 °C; no primer listed; Hill coefficient fixed at 2; labelled compound (fluorescein); read-out: Kd, μM / Flu-dUTP. The format is binding.

In series [5] the target is T5, TdT (human terminal deoxynucleotidyl transferase, hTdT) (Homo sapiens, UniProt P04053, F404W).
T5 construct: gene DNTT; expression per earlier publication
The series can be described thus: microscale thermophoresis (Monolith NT.[…]). Type of series: binding. Particulars: 50 mM Tris-HCl pH 8.0, 5 mM MnCl2, 37 °C; no primer listed; Hill coefficient fixed at 2; labelled compound (fluorescein); read-out: Kd, μM / Flu-dUTP.

The target in series [6] is TdT F404W (human, UniProt P04053 1-509, F404W). The series can be described thus: EMSA; 5 mM MgCl2; Hill h fixed at 2; EMSA: 50 mM Tris-HCl pH 8.0, 5 mM MgCl2, 7% glycerol; 0.5 uM FAM-M44, 0.06-10 uM protein; 10 min at 37 C then 5 min at 0 C; gel at 4 C. Particulars: protein: recombinant; chain copies: 2; label: 5'-FAM; single strand.
The target in series [7] is TdT WT (human, UniProt P04053 1-509). The series is described as above. Particulars: protein: recombinant; chain copies: 2; label: 5'-FAM; single strand.
In series [8] the target is TdT F400A (human, UniProt P04053 1-509, F400A). The description is as above. The conditions noted are these: protein: recombinant; chain copies: 2; label: 5'-FAM; single strand.
The target in series [9] is TdT L397A (human, UniProt P04053 1-509, L397A). The description is as above. The conditions noted are these: protein: recombinant; chain copies: 2; label: 5'-FAM; single strand.
In series [10] the target is TdT F404A (human, UniProt P04053 1-509, F404A). Described as above. The conditions noted are these: protein: recombinant; chain copies: 2; label: 5'-FAM; single strand.
Sequence of TdT F404A (P04053 whole entry F404A): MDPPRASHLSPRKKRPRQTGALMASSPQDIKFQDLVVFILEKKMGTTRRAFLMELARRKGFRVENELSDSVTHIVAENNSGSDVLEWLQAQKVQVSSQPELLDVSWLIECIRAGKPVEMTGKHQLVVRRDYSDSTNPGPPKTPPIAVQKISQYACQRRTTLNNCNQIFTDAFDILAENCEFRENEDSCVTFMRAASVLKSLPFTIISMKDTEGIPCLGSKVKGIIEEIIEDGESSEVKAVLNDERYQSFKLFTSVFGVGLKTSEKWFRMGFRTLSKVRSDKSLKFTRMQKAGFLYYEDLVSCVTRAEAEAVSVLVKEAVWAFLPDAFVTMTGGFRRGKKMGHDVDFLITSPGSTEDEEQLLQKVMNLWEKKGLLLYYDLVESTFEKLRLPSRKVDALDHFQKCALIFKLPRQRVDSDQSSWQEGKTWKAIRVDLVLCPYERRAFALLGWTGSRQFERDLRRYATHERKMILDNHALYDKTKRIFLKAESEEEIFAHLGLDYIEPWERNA

T2 sequence (P04053 whole entry L397A): as the sequence (P04053 whole entry F404A) above, with L397A, A404F counted along it
Sequence of TdT L397A (P04053 whole entry L397A): as the sequence (P04053 whole entry F404A) above, with L397A, A404F counted along it
T1 sequence (P04053 whole entry F400A): as the sequence (P04053 whole entry F404A) above, with F400A, A404F counted along it
Sequence of TdT F400A (P04053 whole entry F400A): as the sequence (P04053 whole entry F404A) above, with F400A, A404F counted along it
T3 sequence (P04053 whole entry F404A): as the sequence (P04053 whole entry F404A) above
Sequence of TdT WT (P04053 whole entry): as the sequence (P04053 whole entry F404A) above, with A404F counted along it
T4 sequence (P04053 whole entry): as the sequence (P04053 whole entry F404A) above, with A404F counted along it
Sequence of TdT F404W (P04053 whole entry F404W): as the sequence (P04053 whole entry F404A) above, with A404W counted along it
T5 sequence (P04053 whole entry F404W): as the sequence (P04053 whole entry F404A) above, with A404W counted along it

In the case of Flu-dUTP, the Kd in series [1] worked out at 1.1 ± 0.1 µM; in series [2] it was 1.5 ± 0.2 µM; in series [3], 1.5 ± 0.2 µM; in series [4], 0.9 ± 0.1 µM; in series [5], 1 ± 0.1 µM.

On to ATGCTATGGATTGATGTGACTAAGGTTGGAATGATGTGAAGAGA (ssDNA) [FAM-M44], for which the Kd in series [6] is 1000 ± 100 nM; in series [7], 880 ± 80 nM; in series [8], 980 ± 70 nM; in series [9], 970 ± 80 nM; in series [10] it was 1100 ± 90 nM.
